Legend:
[1] = Reverse phase HPLC stability of liquid relaxin formulations; settings: in Milli-Q water at 5° C., reference material
Experimental: All buffers were made up to isotonicity (0.154 μ) with the addition of NaCl. […] The resulting 135 100-μL-microvials and 90 1.5-ml-vials were placed on stability tests at 5, 25 and 40° C. Samples were assayed at 0, 7, 21, and 30 days by reverse phase HPLC, ELISA, and cyclic AMP assays. In addition to these assays, the samples were also assayed by near UV circular dichroism (near UV CD) and analytical ultracentrifugation (UC) on days 0 and 30.
The resulting nine samples were each sterile filtered, divided into three equal volumes, and loaded into sterile 300 μL glass microvials. The resulting 27 vials containing about 9 mg were placed on stability testing at 5, 25, and 40° C. for up to 40 days. Samples were assayed by an ELISA assay and a C4 reverse-phase HPLC assay on days 0, 7, 14, 28, and 40. The remaining 3 mg of relaxin was kept in Milli-Q water at 5° C. and used as the reference material. […] These observations were repeated on reference samples used in subsequent stability studies. […]
Study 1: The degradation of relaxin as a function of time was monitored by reverse phase HPLC. […] The fraction of the main peak remaining was computed from triplicate samples (when available), and first-order plots of the degradation kinetics of the main HPLG peak for the five formulations shown in Table I (ranging from 3.0 to 7.5) were determined. […]

rabbit cervix = assay: Efficacy on the ripening of the rabbit cervix; format: in vivo; settings: initial study, 300 μg/ml topical formulation, 0.5 ml intravaginal, eighteen hours
Experimental: Mature pregnant female New Zealand rabbits weighing 4.5 to 6.0 kg were studied. […] Both hormones were applied intravaginally by means of a syringe and a catheter in a volume of 0.5 ml. Control animals received the vehicle alone. After 16-18 hours, the animals were sacrificed using a lethal dose of pentobarbital. […] Paraffin sections were cut and stained with hematoxylin/eosin and alcian blue PAS. Sections were evaluated for general morphology, and specifically for the degree of separation of muscular tissue and collagen fibrils in the submucosa and for the presence of characteristic PAS positive giant cells, which are multinucleate cells of macrophage origin that normally infiltrate the cervix during labor. The measurement of giant cells is accomplished using the procedure described by MacLennan et al., Am J. Obstet.

cervix [2] = settings: 2-mg dose in methylcellulose gel; MacLennan et al. (1981); cited from earlier work
cervix [3] = settings: infusion of 3000 units in the cervical os; Perezgrovas and Anderson (1982); cited from earlier work

Compound	stability by reverse phase HPLC [1]	morphology of the pregnant cervix (ripening) (rabbit cervix)	cervical score (cervix [2])	time to increased dilatation of the cervix (cervix [3]) [h]
CC[C@H](C)[C@@H]1NC(=O)[C@H](C)NC(=O)[C@H]([C@@H](C)CC)NC(=O)[C@H](CCC(N)=O)NC(=O)[C@H](C)NC(=O)[C@H](CCCNC(=N)N)NC(=O)[C@H](C(C)C)NC(=O)[C@H](CC(C)C)NC(=O)[C@H](CCC(=O)O)NC(=O)[C@H](CCCNC(=N)N)NC(=O)CNC(=O)[C@@H](NC(=O)[C@H](CC(C)C)NC(=O)[C@H](CCCCN)NC(=O)[C@@H](NC(=O)[C@@H](NC(=O)[C@H](CCC(=O)O)NC(=O)[C@H](CCC(=O)O)NC(=O)[C@H](CCSC)NC(=O)[C@H](Cc2c[nH]c3ccccc23)NC(=O)[C@H](CO)NC(=O)[C@@H](N)CC(=O)O)C(C)C)[C@@H](C)CC)CSSC[C@@H]2NC(=O)[C@@H](NC(=O)[C@H](CCCCN)NC(=O)[C@H](CC(N)=O)NC(=O)[C@H](C)NC(=O)[C@H](CC(C)C)NC(=O)[C@H](C)NC(=O)[C@H](CO)NC(=O)[C@H](Cc3ccc(O)cc3)NC(=O)[C@H](CC(C)C)NC(=O)[C@@H]3CCC(=O)N3)CSSC[C@H](NC(=O)CNC(=O)[C@H](C(C)C)NC(=O)[C@H](Cc3c[nH]cn3)NC2=O)C(=O)N[C@@H]([C@@H](C)O)C(=O)N[C@@H](CCCCN)C(=O)N[C@@H](CCCNC(=N)N)C(=O)N[C@@H](CO)C(=O)N[C@@H](CC(C)C)C(=O)N[C@@H](C)C(=O)N[C@@H](CCCNC(=N)N)C(=O)N[C@@H](Cc2ccccc2)C(=O)N[C@H](C(=O)O)CSSC[C@@H](C(=O)NCC(=O)N[C@@H](CCSC)C(=O)N[C@@H](CO)C(=O)N[C@H](C(=O)N[C@@H](Cc2c[nH]c3ccccc23)C(=O)N[C@@H](CO)C(=O)N[C@@H](CCCCN)C(=O)N[C@@H](CCCNC(=N)N)C(=O)N[C@@H](CO)C(=O)N[C@@H](CC(C)C)C(=O)O)[C@@H](C)O)NC1=O [long relaxin]	stable by reverse phase HPLC for at least five months			
porcine relaxin		induce changes in the morphology of the pregnant cervix consistent with ripening	improve the cervical score	≤ 8

From patent US5451572A (Genentech, Inc., priority 1993, dated 1995)
